The source made the active and inactive calls. The rule behind the calls is not given here.
Test system: rodent carcinogenicity bioassays, tumor incidence
Assay: CCRIS carcinogenicity studies
Details: Dose: 0, Dose: 0
Summary of the method: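 Archive of carcinogenicity, mutagenicity, tumor promotion and tumor inhibition results drawn from journals, NCI reports and other sources, expert-reviewed; covers 1985-2011 and is no longer updated.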

Compound: NCCNc1cccc2ccccc12
- carcinogen call (Species: MOUSE, Strain/Sex: B6C3F1/FEMALE, Route: ORAL, 0.2, 0.3% OF DIET, TWA FOR HIGH DOSE, 0.2, 0.3% OF DIET, TWA FOR HIGH DOSE): inactive; negative
- carcinogen call (Species: MOUSE, Strain/Sex: B6C3F1/MALE, Route: ORAL, 0.05, 0.1% OF DIET, 0.05, 0.1% OF DIET): inactive; negative
- carcinogen call (Species: RAT, Strain/Sex: F344/FEMALE, Route: ORAL, 0.05, 0.1% OF DIET, 0.05, 0.1% OF DIET): inactive; negative
- carcinogen call (Species: RAT, Strain/Sex: F344/MALE, Route: ORAL, 0.05, 0.1% OF DIET, 0.05, 0.1% OF DIET): inactive; negative

Compound: C1COCCN1
- carcinogen call (Species: RAT, Strain/Sex: SPRAGUE-DAWLEY/FEMALE, Route: INHALATION, 10, 50, 150 PPM 6 HR/D 5 D/WK FOR 104 WK (STUDY DURATION: 105 WK), 10, 50, 150 PPM 6 HR/D 5 D/WK FOR 104 WK (STUDY DURATION: 105 WK)): inactive; negative
- carcinogen call (Species: RAT, Strain/Sex: SPRAGUE-DAWLEY/MALE, Route: INHALATION, 10, 50, 150 PPM 6 HR/D 5 D/WK FOR 104 WK (STUDY DURATION: 105 WK), 10, 50, 150 PPM 6 HR/D 5 D/WK FOR 104 WK (STUDY DURATION: 105 WK)): inactive; negative

Compound: N[C@@H](CCC(=O)NNc1ccc(CO)cc1)C(=O)O
- carcinogen call (Species: MOUSE, Strain/Sex: SWISS/FEMALE, Route: SUBCUTANEOUS, 100 UG IN 0.01 ML PHYSIOLOGICAL SALINE 1/WK FOR 5 WK (STUDY DURATION: LIFETIME)): inactive; negative
- carcinogen call (Species: MOUSE, Strain/Sex: SWISS/FEMALE, Route: SUBCUTANEOUS, 100 UG IN 0.01 ML PHYSIOLOGICAL SALINE ONCE (STUDY DURATION: LIFETIME)): inactive; negative
- carcinogen call (Species: MOUSE, Strain/Sex: SWISS/MALE, Route: SUBCUTANEOUS, 50 UG IN 0.01 ML PHYSIOLOGICAL SALINE ONCE (STUDY DURATION: LIFETIME)): inactive; negative
- carcinogen call (Species: MOUSE, Strain/Sex: SWISS/MALE, Route: SUBCUTANEOUS, 100 UG IN 0.01 ML PHYSIOLOGICAL SALINE 1/WK FOR 5 WK (STUDY DURATION: LIFETIME)): inactive; negative

Compound: NC(=O)OC1CO1 (centres undefined)
- carcinogen call (Species: MOUSE, Strain/Sex: B6C3F1/MALE, Route: INTRAPERITONEAL, 0.5, 1.25, 2.5 UG/G BW IN 10 µL TRIOCTANOIN ONCE (STUDY DURATION: 9 MO), 0.5, 1.25, 2.5 UG/G BW IN 10 µL TRIOCTANOIN ONCE (STUDY DURATION: 9 MO), Tumor Site: Type of Lesion: LIVER: HEPATOMA): active; positive
- carcinogen call (Species: MOUSE, Strain/Sex: CD-1/FEMALE, Route: DERMAL, 11.5 UMOL IN WEEKS 1 AND 2 THEN 5.7 UMOL IN WEEKS 3 AND 4 FOLLOWED BY 3.8 UMOL/WK FOR 28 WK (STUDY DURATION: 42 WK), Tumor Site: Type of Lesion: SKIN: PAPILLOMA, CARCINOMA): active; positive
- carcinogen call (Species: MOUSE, Strain/Sex: STRAIN-A/FEMALE, Route: INTRAPERITONEAL, 34, 68 NMOL/G BW IN 5 µL TRIOCTANOIN ONCE (STUDY DURATION: 6 MO), 34, 68 NMOL/G BW IN 5 µL TRIOCTANOIN ONCE (STUDY DURATION: 6 MO), Tumor Site: Type of Lesion: LUNG: ADENOMA): active; positive
- carcinogen call (Species: RAT, Strain/Sex: SPRAGUE-DAWLEY/FEMALE, Route: INTRAMUSCULAR, 1.15, 2.30 UMOL IN 0.25 ML TRIOCTANOIN 1/WK FOR 10 WK (STUDY DURATION: 18 MO), 1.15, 2.30 UMOL IN 0.25 ML TRIOCTANOIN 1/WK FOR 10 WK (STUDY DURATION: 18 MO), Tumor Site: Type of Lesion: INJECTION SITE: SARCOMA, MAMMARY GLAND: TUMOR): active; positive

Compound: Cc1c(N)nc(C(CC(N)=O)NCC(N)C(N)=O)nc1C(=O)NC(C(=O)NC(C)C(O)C(C)C(=O)NC(C(=O)NCCc1nc(-c2nc(C(=O)NCCC[S+](C)C)cs2)cs1)C(C)O)C(O[C@@H]1O[C@@H](CO)[C@@H](O)[C@H](O)[C@@H]1O[C@H]1O[C@H](CO)[C@@H](O)[C@H](OC(N)=O)[C@@H]1O)c1cnc[nH]1 (some centres undefined)
- carcinogen call (Species: RAT, Strain/Sex: SPRAGUE-DAWLEY/FEMALE, Route: SUBCUTANEOUS, 0.35, 0.7, 1.40, 2.8 MG/KG IN SALINE 1/WK FOR 10 WK THEN 1/2 WK FOR 52 WK OR FOR LIFETIME (STUDY DURATION: 650 D), 0.35, 0.7, 1.40, 2.8 MG/KG IN SALINE 1/WK FOR 10 WK THEN 1/2 WK FOR 52 WK OR FOR LIFETIME (STUDY DURATION: 650 D), Tumor Site: Type of Lesion: KIDNEY: MALIGNANT OR BENIGN TUMOR, INJECTION SITE: MALIGNANT TUMOR): active; positive
- carcinogen call (Species: RAT, Strain/Sex: SPRAGUE-DAWLEY/MALE, Route: SUBCUTANEOUS, 0.35, 0.70, 1.40, 2.8 MG/KG IN SALINE 1/WK FOR 10 WK THEN 1/2 WK FOR 52 WK OR FOR LIFETIME (STUDY DURATION: 650 D), 0.35, 0.70, 1.40, 2.8 MG/KG IN SALINE 1/WK FOR 10 WK THEN 1/2 WK FOR 52 WK OR FOR LIFETIME (STUDY DURATION: 650 D), Tumor Site: Type of Lesion: KIDNEY: MALIGNANT OR BENIGN TUMOR, INJECTION SITE: MALIGNANT TUMOR): active; positive

Compound: CCN(N=O)C(C)=O
- carcinogen call (Species: MOUSE, Strain/Sex: BALB/C/MALE, Route: ORAL, 1000, 2000 PPM IN DRINKING WATER FOR 2 WK (STUDY DURATION: 52 WK), 1000, 2000 PPM IN DRINKING WATER FOR 2 WK (STUDY DURATION: 52 WK), Tumor Site: Type of Lesion: LUNG: TUMOR): active; positive
- carcinogen call (Species: RAT, Strain/Sex: WISTAR/MALE, Route: ORAL, 1000, 2000 PPM IN DRINKING WATER FOR 2 WK (STUDY DURATION: 52 WK), 1000, 2000 PPM IN DRINKING WATER FOR 2 WK (STUDY DURATION: 52 WK)): inactive; negative

Compound: ClC(Br)Br
- carcinogen call (Species: MOUSE, Strain/Sex: B6C3F1/FEMALE, Route: GAVAGE, 50, 100 MG/KG IN CORN OIL 5 D/WK FOR 105 WK (STUDY DURATION: 105 WK), 50, 100 MG/KG IN CORN OIL 5 D/WK FOR 105 WK (STUDY DURATION: 105 WK), Tumor Site: Type of Lesion: LIVER: HEPATOCELLULAR ADENOMA, HEPATOCELLULAR ADENOMA OR CARCINOMA): active; positive
- carcinogen call (Species: MOUSE, Strain/Sex: B6C3F1/MALE, Route: GAVAGE, 50, 100 MG/KG IN CORN OIL 5 D/WK FOR 105 WK (STUDY DURATION: 105 WK), 50, 100 MG/KG IN CORN OIL 5 D/WK FOR 105 WK (STUDY DURATION: 105 WK), Tumor Site: Type of Lesion: LIVER: HEPATOCELLULAR CARCINOMA, HEPATOCELLULAR ADENOMA OR CARCINOMA): equivocal
- carcinogen call (Species: RAT, Strain/Sex: F344/FEMALE, Route: GAVAGE, 40, 80 MG/KG IN CORN OIL 5 D/WK FOR 104 WK (STUDY DURATION: 105 WK), 40, 80 MG/KG IN CORN OIL 5 D/WK FOR 104 WK (STUDY DURATION: 105 WK)): inactive; negative
- carcinogen call (Species: RAT, Strain/Sex: F344/MALE, Route: GAVAGE, 40, 80 MG/KG IN CORN OIL 5 D/WK FOR 104 WK (STUDY DURATION: 105 WK), 40, 80 MG/KG IN CORN OIL 5 D/WK FOR 104 WK (STUDY DURATION: 105 WK)): inactive; negative

Compound: CCCCCN(CCCCC)N=O
- carcinogen call (Species: RAT, Strain/Sex: WISTAR/FEMALE, Route: SUBCUTANEOUS, 62.5, 125, 250 MG/KG BW 1/WK FOR 25 WK (STUDY DURATION: 1 YR), 62.5, 125, 250 MG/KG BW 1/WK FOR 25 WK (STUDY DURATION: 1 YR), Tumor Site: Type of Lesion: NASAL CAVITY: POLYPOID ADENOMA, LUNG: BRONCHIOALVEOLAR ADENOMA): active; positive
- carcinogen call (Species: RAT, Strain/Sex: WISTAR/MALE, Route: SUBCUTANEOUS, 62.5, 125, 250 MG/KG BW 1/WK FOR 25 WK (STUDY DURATION: 1 YR), 62.5, 125, 250 MG/KG BW 1/WK FOR 25 WK (STUDY DURATION: 1 YR), Tumor Site: Type of Lesion: NASAL CAVITY: POLYPOID ADENOMA, LUNG: BRONCHIOALVEOLAR ADENOCARCINOMA, BRONCHIOALVEOLAR ADENOMA): active; positive

— PubChem BioAssay AID1259411 (Chemical Carcinogenesis Research Information System (CCRIS), 2018)
